According to patent US6555532B1, “Method of treating alopecia” (North Carolina State University, priority 1996, dated 2003):

Legend:
[1] = tested on: hair growth on clipped dorsal skin of female CD-1 mice; test: Hair regrowth on clipped dorsal skin of mice after twice-weekly topical treatment; assay type: in vivo, mouse; conditions: for effect on hair growth (figure legend): 10 nmol in 200 μL acetone applied topically to clipped hair area, mice; for mice demonstrating partial patchy hair regrowth: 10 nmol topically twice weekly from 6th week; for hair growth in pre-existing anagen follicles: 10 week old mice in anagen phase, twice weekly topical
Description: Female CD-1 mice, 4, 5, or 9 weeks of age, were purchased from Charles River Laboratories, Raleigh, N.C. Mice were kept in an animal facility at least 1 week prior to use and were fed rodent chow (Agway Food, Granville Milling and Co., Creedmoor, N.C.) and water ad libitum. The mice were kept on corn cob bedding and placed on a 12 hour light/dark cycle. Female CD-1 mice were clipped on the dorsal region (approximately 4×2.5 cm area) with electric clippers. The mice were then treated twice weekly on the clipped dorsal surface with either (a) 10 nmol 17-β-estradiol in 200 μl acetone or (b) acetone alone. For the studies with the estrogen receptor antagonist, ICI 182,780 was dissolved in acetone and 200 μl was topically applied twice weekly. Mice were treated with the estrogen receptor antagonist ICI 182,780 as provided in Example 1. Twice-weekly treatment of clipped dorsal skin was begun when the mice were 6 weeks of age, with either (a) 10 nmol ICI 182,780 in acetone or (b) acetone alone. […] In order to determine if 17-β-estradiol could influence hair growth, six week old CD-1 female mice were clipped on the dorsal surface with electric clippers and then treated twice weekly from the 6th week of age to the 16th week of age with topical applications of either (a) 10 nmol 17-β-estradiol or (b) acetone vehicle alone. […] In order to determine if 17-β-estradiol could block hair growth in pre-existing anagen follicles, 10 week old mice in the anagen phase of the hair cycle were treated twice weekly with 17-β-estradiol applied topically to clipped dorsal skin.

[2] = tested on: hair follicles of female CD-1 mice; test: Histological analysis of skin to determine the phase of the hair cycle; assay type: in vivo, mouse
Description: Female CD-1 mice, 4, 5, or 9 weeks of age, were purchased from Charles River Laboratories, Raleigh, N.C. Mice were kept in an animal facility at least 1 week prior to use and were fed rodent chow (Agway Food, Granville Milling and Co., Creedmoor, N.C.) and water ad libitum. The mice were kept on corn cob bedding and placed on a 12 hour light/dark cycle. Female CD-1 mice were clipped on the dorsal region (approximately 4×2.5 cm area) with electric clippers. The mice were then treated twice weekly on the clipped dorsal surface with either (a) 10 nmol 17-β-estradiol in 200 μl acetone or (b) acetone alone. For the studies with the estrogen receptor antagonist, ICI 182,780 was dissolved in acetone and 200 μl was topically applied twice weekly. […] To determine the effect of 17-β-estradiol on the hair follicle cycle, mice were treated with 17-β-estradiol or acetone alone twice weekly from the 4th week of age to the 15th week of age. Every week, histological analysis of the skin from 3 mice from each group was conducted to determine the phase of the hair cycle. Representative skin histology sections from acetone- and 17-β-estradiol-treated mice at 7, 9, and 11 weeks of age are shown in FIGS. 6A-6F. As expected, at 7 weeks of age all follicles were in telogen in both the 17-β-estradiol and the acetone-treated mice.

## C[C@]12CC[C@@H]3c4ccc(O)cc4CC[C@H]3[C@@H]1CC[C@@H]2O [17-β-estradiol]
[1]
  effect on hair growth (figure legend): blocks hair regrowth
[1]; 10 nmol topically twice weekly from 6th to 16th week of age
  effect on dorsal hair regrowth: potent inhibitory effect
[1]; 10 nmol topically twice weekly from 6th to 16th week of age, by 16 weeks of age, 100% of acetone mice regrown by 13 weeks
  full hair regrowth: did not demonstrate any full hair regrowth
[1]; 10 nmol topically twice weekly from 6th to 16th week of age, some of the treated mice
  partial patchy hair regrowth, share of total clipped area: less than 10%
[1]; at 12 weeks of age
  mice demonstrating partial patchy hair regrowth: 20%
[1]; by 15 weeks
  mice demonstrating partial patchy hair regrowth: 40%
[1]; treatment continued for 10 weeks
  hair growth in pre-existing anagen follicles: no hair growth was apparent
[1]; within two weeks, all acetone mice developed full coat
  hair growth in pre-existing anagen follicles: no longer growing hair
[2]; 17-β-estradiol twice weekly from 4th week of age, 15 weeks of age, termination of experiment
  hair follicle phase: still arrested in telogen
[2]; 17-β-estradiol twice weekly from 4th week of age, at 7 weeks of age, acetone mice also in telogen
  hair follicle phase: telogen
[2]; 17-β-estradiol twice weekly from 4th week of age, by 9 weeks of age, acetone mice entered anagen
  hair follicle phase: remained in telogen
[2]; 17-β-estradiol twice weekly from 4th week of age, by 11 weeks of age, acetone mice in mid to late anagen
  hair follicle phase: remained in telogen

## C[C@]12CC[C@@H]3c4ccc(O)cc4C[C@@H](CCCCCCCCC[S+]([O-])CCCC(F)(F)C(F)(F)F)[C@H]3[C@@H]1CC[C@@H]2O (stereo partly drawn) [ICI 182,780, 7α-[9-(4,4,5,5,5,-pentafluoropentylsulfinyl)nonyl]estra-1,3,5(10)-triene-3,17β-diol]
[1]
  effect on hair growth (figure legend): causes hair growth during the second telogen phase
[1]; 10 nmol in acetone topically twice weekly from 6 weeks of age, by 9 weeks of age, no hair growth in acetone-treated mice
  mice demonstrating full hair regrowth: 60%
[1]; 10 nmol in acetone topically twice weekly from 6 weeks of age, by 10 weeks of age, 40% of acetone-treated mice
  mice that developed a full coat of hair: all
[2]; 10 nmol ICI 182,780 twice weekly from 6 weeks, at 7 weeks of age, acetone mice in second telogen
  hair follicle phase: early to mid anagen
[2]; 10 nmol ICI 182,780 twice weekly from 6 weeks, at eleven weeks of age, control mice in mid to late anagen
  hair follicle phase: entered telogen
[2]; 10 nmol ICI 182,780 twice weekly from 6 weeks, by eight weeks of age, acetone mice in telogen
  hair follicle phase: mid to late anagen
[2]; conclusion from histology at eleven weeks of age
  effect on duration of anagen: does not prolong anagen
